Test results reported in patent US9173875B2, “Treatment for nicotine-induced lung disease using peroxisome proliferator-activated receptor gamma agonists” (Los Angeles Biomedical Research Institute at Harbor-UCLA …, priority 2006, dated 2015).

Tests used:
[1] = system: WI38 cells; assay: Triglyceride uptake assay ([3H]triolein) in WI38 cells; type: cell-based, human
Method: (§1) The human embryonic cell line WI38 was obtained from American Type Culture Collection (Rockville, Md.). Cells were grown in MEM plus 10% FBS at 37° C. in six-well plates, four-well slides, and 60- and 100-mm culture dishes as needed.
The method used to quantitate triglyceride uptake by fetal rat lung fibroblasts has been described previously (Torday et al. (1995) Biochim Biophys Acta 1254: 198-206). Briefly, culture medium was replaced with DMEM containing 20% adult rat serum mixed with [3H]triolein (5 μCi/ml). The cells were incubated at 37° C. in 5% CO2+balance air for 4 h. At the termination of the incubation, the medium was decanted, the cells were rinsed twice with 1 ml of ice-cold MEM, and the cells were removed from the culture plate after a 5- to 10-min incubation with 2 ml of a 0.05% trypsin solution. An aliquot of the cell suspension was taken for protein assay (Bradford (1976) Anal Biochem 72: 248-254), and the remaining cell suspension was extracted for neutral lipid content.

[2] = system: WI38 cells; assay: Reversal of nicotine-induced LIF-to-MYF transdifferentiation in WI38 cells, Western analysis
Method: The human embryonic cell line WI38 was obtained from the American Type Culture Collection (Rockville, Md.). Cells were grown in minimum essential medium (MEM) +10% fetal bovine serum at 37° C. in six-well plates, two well slides, and 60-mm and 100-mm culture dishes, as needed. […] Subsequently, the cells were treated with rosiglitazone (RGZ) (1×10^−5 M) (a PPARγ agonist), PTHrP (5×10^−7 M), or DBcAMP (1×10^−5 M) for 7 days, and the expression of PTHrP receptor, PPARγ, ADRP, calponin, and cSMA was determined by Western analysis and immunohistochemistry. Simultaneously, fibroblast function was characterized by measuring their capacity to take up triglycerides. Some experiments were performed in the presence of a specific PPARγ antagonist, GW9662. Medium containing fresh chemicals was added daily, and at the end of the experimental period the cells were processed as needed.
For Western blotting, cells were lysed using an extraction buffer [10 mM tris (hydroxymethyl) aminomethane (Tris, pH 7.5), 0.25 M sucrose, 1 mM EDTA, 5 mM benzamidine, 2 mM phenylmethylsulfonyl fluoride, and 10 (j.tg/ml each of pepstatin A, aprotinin, and leupeptin], and centrifuged at 140 g for 10 min (4° C.). Equal amounts of the protein (25 μg) from the supernatant were dissolved in electrophoresis sample buffer and were subjected to sodium dodecyl sulfate-polyacrylamide (4%-12% gradient) gel electrophoresis (SDS-PAGE) followed by electrophoretic transfer to a nitrocellulose memane. The nonspecific binding of antibody was blocked by washing with Tris-buffered saline (TBS) containing 0.1% Tween 20 (TBST) and 5% milk for 1 h. The blot was then subjected to two brief washes with TBST plus 0.5% Tween 20, incubated in TBST plus 0.1% Tween 20 and the specific primary antibodies (PPARγ 1:2000, Alexis Biochemicals, San Diego, Calif.; cSMA 1:50,000, Sigma, St. Louis, Mo.: ADRP 1:3000) overnight at 4° C. Blots were then washed in TBST plus 0.1% Tween 20 and then incubated for 1 h in secondary antibody, washed, and developed with a chemiluminescent substrate [enhanced chemiluminescence (ECL); Amersham, Arlington Heights, Ill.] following the manufacturer's protocol. The densities of the specific protein bands were quantified using a scanning densitometer (Eagle Eye II still video system, Stratagene, La Jolla, Calif.).

[3] = system: WI38 cells; assay: Western blot of lipogenic and myogenic marker proteins in WI38 cells (nicotine with or without lipogenic pathway agonists); type: cell-based, human; conditions: nicotine 1×10^−9, 7 days
Method: as §1
Western blotting was performed with modifications of methods described previously (Ayad and Wong (1998) Crit. Care Med 26: 1277-1282). […] Equal amounts of the protein (25 μg) from the supernatant were dissolved in electrophoresis sample buffer and were subjected to SDS-PAGE (4-12% gradient) followed by electrophoretic transfer to a nitrocellulose membrane. Nonspecific binding of antibody was blocked by washing with Tris-buffered saline (TBS) containing 5% milk for 1 h. The blot was then subjected to two brief washes with TBS plus 0.5% Tween 20, incubated in TBS plus 0.1% Tween 20 and the specific primary antibodies (PPAR 1:2,000, Alexis Biochemicals, San Diego, Calif.; -SMA 1:50,000, Sigma; ADRP 1:3,000, a kind gift from Dr. Constantine Londos, National Institute of Diabetes and Digestive and Kidney Diseases) overnight at 4° C. Blots were then washed in TBS plus 0.1% Tween 20 and then incubated for 1 h in secondary antibody, washed, and developed with a chemiluminescent substrate (ECL; Amersham, Arlington Heights, Ill.) following the manufacturer's protocol.

[4] = system: ATII cells; assay: Phospholipid synthesis ([3H]choline incorporation into saturated phosphatidylcholine) by ATII cells after in utero nicotine; type: in vivo, Sprague-Dawley rat; conditions: nicotine 1 mg/kg in utero; vs control, P<0.05, n=6
Method: Incorporation of [methyl-3H]choline chloride (NEN Dupont) into saturated phosphatidylcholine was determined in monolayers of cultured explants and ATII cells. […] After incubation, explants and cells were washed three times with ice-cold PBS. The explants and the scraped cells were thoroughly homogenized, and the cellular lipids were extracted with chloroform-methanol (2:1) (Bligh and Dyer (1959) Can. J. Biochem. Physiol., 37: 911-917). The organic phase was dried under a stream of nitrogen at 60° C., resuspended in 0.5 ml of carbon tetrachloride containing 3.5 mg of osmium tetroxide, and left at room temperature for 15 min. The reaction mixture was redried under nitrogen and resuspended in 70 μl of chloroform-methanol (9:1, vol/vol). The lipid extracts were transferred to silica gel plates (Kodak, Rochester, N.Y.) and developed in a chloroform-methanolwater (65:25:4) solvent system. Pure dipalmitoyl phosphatidylcholine was used as the chromatographic standard. The developed plates were stained with bromothymol blue, blotted, and vacuum dried for 5 min at 90° C. Chromatogram spots corresponding to the migration of saturated phosphatidylcholine were scraped from the plates and counted by liquid scintillation spectrometry. The amounts of [methyl^3H]choline chloride incorporated into saturated phosphatidylcholine were expressed as disintegrations per minute per milligram of protein.

[5] = target: T1, PTHrP receptor (Homo sapiens, UniProt Q03431); assay: PTHrP receptor binding assay; conditions: nicotine 1×10^−6 M
T1 construct: 10-12 μg membrane protein; endogenous in cells; host or cells: WI38 human embryonic lung fibroblasts (inferred; the assay text only says membrane protein)
T1 sequence (Q03431 27-593): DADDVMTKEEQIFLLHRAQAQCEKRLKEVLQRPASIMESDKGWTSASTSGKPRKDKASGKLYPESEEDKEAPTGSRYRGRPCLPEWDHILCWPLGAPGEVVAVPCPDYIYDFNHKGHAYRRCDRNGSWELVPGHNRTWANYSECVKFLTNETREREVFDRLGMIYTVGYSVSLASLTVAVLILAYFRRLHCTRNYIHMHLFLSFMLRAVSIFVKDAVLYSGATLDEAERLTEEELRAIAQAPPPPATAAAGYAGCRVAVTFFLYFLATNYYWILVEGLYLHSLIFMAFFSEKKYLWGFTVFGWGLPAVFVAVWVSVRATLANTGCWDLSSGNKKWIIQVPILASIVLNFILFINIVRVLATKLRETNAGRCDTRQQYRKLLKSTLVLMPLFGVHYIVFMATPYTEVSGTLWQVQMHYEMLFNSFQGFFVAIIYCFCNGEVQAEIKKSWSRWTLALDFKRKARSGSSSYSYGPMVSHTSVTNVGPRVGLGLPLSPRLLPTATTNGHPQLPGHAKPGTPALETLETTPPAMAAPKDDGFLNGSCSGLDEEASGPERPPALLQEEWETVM
Method: The receptor binding assay was carried out as previously described (Torday and Rehan (2002) Am. J. Physiol. Lung Cell Mol. Physiol. 283: L130-L135; Torday and Rehan (2003) Cell Biochem Biophys 37: 235-246). The assay mixture, in a total volume of 0.1 ml, contained 50 mM Tris.HCl (pH 7.4), 2 mM dithiothreitol, 10 mM EDTA, 10 μg/ml each of protease inhibitors (leupeptin, pepstatin, antipain, and aprotinin), 0.5 mM phenylmethylsulfonyl fluoride, 10 mg/ml BSA, 5 mM MgCl2, […] [1251]-Tyr34-PTHrP-(1-34) (specific activity 1,064 Ci/mmol), 10-12 μg membrane protein, and 1×10-10 to 1×10^−6 M PTHrP-(1-34). Triplicate samples were incubated for 30 min at 30° C. Reactions were stopped by the addition of 0.1 ml of homogenization buffer containing 20 mg/ml of BSA and placed in ice-cold water for 30 min, followed by centrifugation at 15,000 g for 1 min. The supernatant was aspirated, and the pellet was counted for radioactive content with a gamma counter (model 1470; Wallace, Gaithersburg, Md.). Nonspecific binding was determined in the presence of 1 μM nonradioactive PTHrP-(1-34). Specific binding of [^125I]-Tyr34-PTHrP-(1-34) was calculated as total binding minus nonspecific binding and expressed as femtomoles per milligrams of protein. […] The effect of nicotine (1×10^−6 M) on PTHrP receptor binding was examined without and with the nACh receptor antagonists D-tubocurarine, α-bungarotoxin, or mecamylamine (1×10^−9 to 1×10^−6 M).

[6] = 7d nicotine-only group, 7 days after nicotine 10^−9 M

SMILES: CN1CCCC1c1cccnc1 (centres unmarked) [nicotine]
- decrease in triglyceride uptake ([1]; nicotine 1×10^−9 M for 24 h): ~30%
- decrease in triglyceride uptake ([1]; nicotine 1×10^−9 M for 7 days): ~50%
- αSMA expression vs untreated controls ([2]; 7 days after stopping nicotine (Example 3)): significantly higher
- expression of PTHrP receptor, PPARγ and ADRP vs untreated controls [2, 6]: significantly lower
- expression of αSMA and calponin vs untreated controls [2, 6]: significantly higher
- PTHrP receptor expression vs untreated controls ([2]; nicotine 10^−9 M 7 days, then 7 days without nicotine (Example 3)): significantly lower
- expression of αSMA and calponin ([2]; nicotine 7 days, p<0.001 vs control, n=3): significant increases
- expression of PTHrP receptor, PPARγ and ADRP ([2]; nicotine 7 days, vs control, n=3): significant decreases
- change in ADRP protein level [3]: −20±3%
- change in PPAR protein level [3]: −24±2%
- change in PTHrP receptor protein level [3]: −31±7%
- change in α-SMA protein level [3]: +100±5%
- [3H]choline incorporation into saturated phosphatidylcholine [4]: significantly increased
- decrease in PTHrP binding to its receptor [5]: 30%
